Experimental findings from PubChem BioAssay (NCI) are described below.

Among the test systems are KM12 colon; SF-295 CNS; SK-MEL-5 melanoma; NCI/ADR-RES ovarian; U251 CNS; RPMI-8226 leukemia; SK-MEL-28 melanoma; ACHN renal; MOLT-4 leukemia; HL-60(TB) leukemia.
What all share (experiment): inhibition of tumour cell growth, NCI panel, 48 h

Each structure is given as a SMILES string. “And” between values parts separate entries of the source, which are not always exact repeats. Equal entries are not always repeated.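 Results reflect a 48-hour exposure of cells in 96-well plates to compound at five concentrations. At the GI50, growth is halved. TGI: total growth inhibition.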 A value given as a limit tells only on which side of the number the result lay.

Regarding `COc1cccc(Cn2c(-c3nonc3NC(C)=O)nc3ccccc32)c1`, the GI50 in the experiment on KM12 colon was 4 µM; in the experiment on SF-295 CNS it was 1.85 µM; with SK-MEL-5 melanoma it was 3.76 µM; with NCI/ADR-RES ovarian it was 3.24 µM; in the experiment with U251 CNS, 3.94 µM; in the experiment with RPMI-8226 leukemia, 5.34 µM. Moreover, the GI50 with SK-MEL-28 melanoma was 6.17 µM; in the experiment with ACHN renal, 8.41 µM; with MOLT-4 leukemia, 5.63 µM. Also, the TGI with KM12 colon was above 100 µM; with SF-295 CNS, 78.7 µM; in the experiment with SK-MEL-5 melanoma, above 100 µM; in the experiment with NCI/ADR-RES ovarian it was above 100 µM; in the experiment on U251 CNS, 35.5 µM; with RPMI-8226 leukemia, above 100 µM. The TGI in the experiment with SK-MEL-28 melanoma, in the experiment on ACHN renal and in the experiment on MOLT-4 leukemia was above 100 µM throughout.
As to `O=C(O)c1c[nH]c2c(OCc3ccccc3)c3ccccc3c(O)c2c1=O`, the GI50 in the experiment with KM12 colon was 12.6 µM; with SF-295 CNS, 13 µM; in the experiment with NCI/ADR-RES ovarian, 16.5 µM; in the experiment on U251 CNS, 2.43 µM; in the experiment on HL-60(TB) leukemia, 19.7 µM; in the experiment with RPMI-8226 leukemia, 9.04 µM. In addition, the GI50 with SK-MEL-28 melanoma was 19.3 µM; in the experiment on MOLT-4 leukemia, 15.6 µM. The TGI in the experiment with KM12 colon was found to be 29.4 µM; in the experiment on SF-295 CNS, 27.8 µM; in the experiment on NCI/ADR-RES ovarian it was 47.7 µM; with U251 CNS, 5.19 µM; with HL-60(TB) leukemia it was 46.1 µM; with RPMI-8226 leukemia, 35.8 µM. Moreover, the TGI in the experiment on SK-MEL-28 melanoma and in the experiment on MOLT-4 leukemia was 36.9 µM in each case.
Turning to `N#C/C(=C1C=C/C(=N\O)C(Cl)=C\1)c1ccccc1`, the GI50 is 0.772 µM with KM12 colon; 3.74 µM with SF-295 CNS; 3.05 µM in the experiment with SK-MEL-5 melanoma; 1.66 µM in the experiment with NCI/ADR-RES ovarian; 2.19 µM in the experiment with HL-60(TB) leukemia; 0.451 µM with RPMI-8226 leukemia. Moreover, the GI50 in the experiment with SK-MEL-28 melanoma was 6.77 µM; in the experiment on ACHN renal, 0.733 µM; in the experiment on MOLT-4 leukemia it was 2.91 µM. Besides, the TGI in the experiment on KM12 colon is 10.4 µM; with SF-295 CNS, above 100 µM; with SK-MEL-5 melanoma, 10.3 µM; in the experiment on NCI/ADR-RES ovarian, 5.17 µM; in the experiment on HL-60(TB) leukemia, 5.67 µM; in the experiment with RPMI-8226 leukemia, 4.41 µM. The TGI in the experiment on SK-MEL-28 melanoma was 21.8 µM; in the experiment with ACHN renal, 11.6 µM; in the experiment on MOLT-4 leukemia it was 9.02 µM.
Take `Cc1c(-c2nnc(-c3ccc(F)cc3)o2)nnn1-c1ccnc2c(C(F)(F)F)cccc12`: the GI50 with KM12 colon is 89.5 µM; with SF-295 CNS, 29.6 µM; in the experiment on SK-MEL-5 melanoma, 30.4 µM; in the experiment with NCI/ADR-RES ovarian, 40.3 µM; in the experiment with U251 CNS it was 30.4 µM; in the experiment with HL-60(TB) leukemia it was above 100 µM. The GI50 in the experiment with RPMI-8226 leukemia was 30.6 µM; in the experiment on SK-MEL-28 melanoma, 22.6 µM; in the experiment on ACHN renal, 30.8 µM; in the experiment on MOLT-4 leukemia it was above 100 µM. The TGI in the experiment on KM12 colon, with SF-295 CNS, in the experiment with SK-MEL-5 melanoma, in the experiment on NCI/ADR-RES ovarian, with U251 CNS and in the experiment on HL-60(TB) leukemia was above 100 µM throughout. Further, the TGI in the experiment on RPMI-8226 leukemia is above 100 µM; in the experiment on SK-MEL-28 melanoma it was 74.1 µM; in the experiment with ACHN renal it was above 100 µM; in the experiment with MOLT-4 leukemia, above 100 µM.
On to `O=C(O)CP(=O)(O)O`, for which the TGI in the experiment with KM12 colon, in the experiment with SF-295 CNS, in the experiment on SK-MEL-5 melanoma, in the experiment with NCI/ADR-RES ovarian, in the experiment with U251 CNS and in the experiment on HL-60(TB) leukemia was above 100 µM throughout. Also, the TGI in the experiment with RPMI-8226 leukemia, in the experiment on SK-MEL-28 melanoma, in the experiment with ACHN renal and in the experiment with MOLT-4 leukemia was above 100 µM each time.
On to `N#Cc1c(N)nc(NCc2ccccc2)c(C#N)c1-c1ccccc1Cl`, for which the GI50 in the experiment with KM12 colon was 47 µM; in the experiment with SF-295 CNS it was 12.6 µM; in the experiment with SK-MEL-5 melanoma, 51.3 µM; with NCI/ADR-RES ovarian, 37.1 µM; with U251 CNS it was 2.46 µM; in the experiment on RPMI-8226 leukemia, 48.6 µM. Further, the GI50 with SK-MEL-28 melanoma is 49.5 µM; in the experiment with ACHN renal it was 5.73 µM; with MOLT-4 leukemia, 26.8 µM. For the same compound, the TGI in the experiment with KM12 colon is above 100 µM; with SF-295 CNS it was 76.2 µM; in the experiment on SK-MEL-5 melanoma, above 100 µM; in the experiment on NCI/ADR-RES ovarian, above 100 µM; in the experiment with U251 CNS it was 10.3 µM; with RPMI-8226 leukemia it was above 100 µM. Further, the figures for the TGI with SK-MEL-28 melanoma, in the experiment on ACHN renal and in the experiment with MOLT-4 leukemia were above 100 µM, 62.7 µM and above 100 µM, respectively.
On to `COC1=C2C[C@@H](C)C[C@@H](OC)[C@@H](O)[C@H](C)/C=C(\C)[C@@H](OC(N)=O)[C@H](OC)/C=C\C=C(/C)C(=O)NC(=CC1=O)C2=O`, for which the TGI was 8.59 µM [middle of 4 runs] with SK-MEL-5 melanoma; 10.7 µM and 32.8 µM and 10.6 µM with NCI/ADR-RES ovarian; 6.51 µM and 19.4 µM and 4.2 µM in the experiment on U251 CNS.
Turning to `COC(=O)/C(=N\NC(=S)NN)C(C(=O)OC)C(=O)C(=O)Nc1cccc(C(F)(F)F)c1` (configuration not stated), the TGI in the experiment with KM12 colon, in the experiment with SF-295 CNS, in the experiment on SK-MEL-5 melanoma, with NCI/ADR-RES ovarian, in the experiment with U251 CNS and in the experiment on HL-60(TB) leukemia was above 100 µM in each case. Further, the TGI in the experiment on RPMI-8226 leukemia, with SK-MEL-28 melanoma and in the experiment on ACHN renal was above 100 µM in each case.
In the case of `CCC(c1ccc2cc(O)ccc2c1)C(C)(C)C(=O)O` (configuration not stated), the TGI in the experiment with KM12 colon, in the experiment on SF-295 CNS, in the experiment with SK-MEL-5 melanoma, in the experiment with NCI/ADR-RES ovarian, in the experiment with U251 CNS and in the experiment with RPMI-8226 leukemia was above 100 µM throughout. Besides, the TGI in the experiment with SK-MEL-28 melanoma, in the experiment with ACHN renal and in the experiment with MOLT-4 leukemia was above 100 µM in each case.
Regarding `C=C(C)[C@@H]1CC[C@]2(C(=O)O)CC[C@]3(C)[C@H](CC[C@@H]4[C@@]5(C)C/C(=C/c6ccc(OC)cc6)C(=O)C(C)(C)[C@@H]5CC[C@]43C)[C@@H]12`, the GI50 in the experiment on KM12 colon is 1.71 µM; in the experiment with SF-295 CNS, 1.71 µM; with SK-MEL-5 melanoma it was 2.03 µM; in the experiment with NCI/ADR-RES ovarian, 2.84 µM; with U251 CNS, 1.86 µM; with SK-MEL-28 melanoma, 1.91 µM. For the same compound, the values for the GI50 in the experiment on ACHN renal and with MOLT-4 leukemia were 2.77 µM and 2.97 µM, respectively. The TGI with KM12 colon is 4.12 µM; with SF-295 CNS it was 4.45 µM; in the experiment on SK-MEL-5 melanoma, 4.12 µM; in the experiment with NCI/ADR-RES ovarian, 13.3 µM; in the experiment with U251 CNS it was 5.68 µM; in the experiment on SK-MEL-28 melanoma, 3.72 µM. For the same compound, the TGI in the experiment on ACHN renal was 10.5 µM; in the experiment with MOLT-4 leukemia it was above 100 µM.
